Laboratory results as given in article PMC10331583, “Control of fibrosis with enhanced safety via asymmetric inhibition of prolyl‐tRNA synthetase 1” (EMBO Molecular Medicine, 2023).
Several values for one entry are separate records, joined by “and”; a condition that tells them apart may be missing. Equal entries are not always repeated.

Assays:
[1] = CellTiter‐Glo assay, screen of HF derivatives; assay type: cell-based; details: human, NHLF cells
Procedure: After 24 h, the cells were incubated with various concentrations of compounds for 48 h. The level of ATP as a measure of cell viability was determined using a CellTiter‐Glo® luminescent cell viability assay kit (Promega, G7571) following the manufacturer's instructions.

[2] = test system: WI‐26 VA4 cells; test: Immunoblot of cellular protein levels with different proline content; assay type: cell-based, human; details: Fig 2A
Procedure: The levels of proteins were determined by immunoblot assay. […] The lowest concentration at which protein levels started to decrease was normalized by IC50 values for collagen level and used as the y‐axis value. […] The slope and R^2 value were calculated using GraphPad Prism 7.0. […] The activation of the TGF‐β pathway was determined by monitoring the phosphorylation of SMAD2. Immunoblot images are representative of three biologically independent experiments. • The band intensities of the immunoblot images in (C) were quantified using ImageJ (n = 3; One‐way ANOVA; *P < 0.05, **P < 0.01, ***P < 0.001; mean ± SEM). Source data are available online for this figure.

[3] = Pharmacokinetic study (plasma, LC-MS/MS); assay type: in vivo, C57BL/6 male mice; details: 3, 10 and 30 mg/kg, single dose, intravenous and oral
Procedure: All experiments were performed according to the guidelines on the Institutional Animal Care and Use Committee of QuBEST BIO (QBIACUC‐A21112). Seven‐week‐old C57BL/6 male mice were purchased from Samtako (Osan, South Korea) and fed with regular chow and water ad libitum for 1 week before the experiments. Nine C57BL/6 mice in each group received three single ascending doses (3, 10, and 30 mg/kg) of DWN12088 formulated in normal saline intravenously and orally in fasted conditions. Post‐dosing serial blood samples were obtained using eye bleeding into heparinized capillary tubes with composite sampling (three mice per time point) at predetermined time points. The plasma was separated from the whole blood by centrifugation at 15,000 g for 2 min at 4°C, and then the proteins were precipitated using acetonitrile containing a deuterated‐labeled DWN12088 as an internal standard (IS).
The amount of DWN12088 in mouse plasma was measured by the AB Sciex ExionLC HPLC system connected to an AB Sciex 6500+ Qtrap mass spectrometer equipped with an electrospray ionization (ESI) source (AB Sciex LLC, Framingham, MA, USA). […] The gradient elution program was set as follows: 0–1 min, 10% B; 1.0–1.5 min, 10–95% B; 1.5–3.6 min, 95% B; 4.0–6.0 min, 10% B. Multiple reaction monitoring (MRM) was selected for the quantification of DWN12088 and IS in positive ion mode. […]

[4] = set-up: method as in earlier work; details: healthy adults; ref ANZCTR ACTRN12619001239156; ClinicalTrials.gov NCT04767815, NCT04888715, NCT04888728; cited from earlier work
[5] = test system: WI‐26 VA4 cells stably expressing EV (empty vector); test: Collagen ELISA in cells stably expressing EV; details: for Collagen level, average: average of 4 experiments; for Collagen level, single replicates: replicates of Experiments #1-#4
[6] = Cytotoxicity assay in cells stably expressing PARS1 mutant; details: human; for activity at 72 h, 3 µM: 3000 nM; for activity at 72 h, 30 µM: 30000 nM; for activity at 72 h, 100 µM: 100000 nM
[7] = test system: WI‐26 VA4 cells stably expressing PARS1 FA/EA/RL mutant; test: as above; details: WI-26 VA4 Flag-PARS1 FA/EA/RL
[8] = Cytotoxicity, % of control (single replicates, Experiment #1-#4), WI-26 VA4 Flag-PARS1 FA/EA/RL
[9] = Cytotoxicity, % of control, average, WI-26 VA4 Flag-PARS1 FA/EA/RL

## O[C@H]1CCCN[C@@H]1CCCn1cnc2c(Cl)c(Cl)ccc21 [DWN12088]
[1]
  CC50 at 48 h: > 100 µM
[2]
  effective dose for decreasing general proteins (SMAD2, AIMP2, AMPKα, cyclin D1) compared with COL1A1: about 10 times
[3]
  plasma concentrations: higher at 30 mg/kg
[4]
  safety in phase 1 studies: validated its safety in phase 1 studies
[5]; EV cells
  CC50/collagen IC50: 12.55
[5]; EV cells (reference)
  Relative (CC50)/(collagen IC50): 1.00
[5]; Homo sapiens, WI26VA4, read-out: IC50, collagen level
  IC50: 1910 nM
[5]; WI-26 VA4 EV, 30 nM
  Collagen level, average: 106.29 % of control
  Collagen level, single replicates: 103.80 % of control and 93.68 % of control and 118.18 % of control and 101.32 % of control and 113.71 % of control and 100.49 % of control and 110.94 % of control and 125.36 % of control and 99.68 % of control and 91.65 % of control and 118.14 % of control and 98.48 % of control
[5]; WI-26 VA4 EV, 100 nM
  Collagen level, average: 97.93 % of control
  Collagen level, single replicates: 104.52 % of control and 100.73 % of control and 92.07 % of control and 94.49 % of control and 97.76 % of control and 98.74 % of control and 108.25 % of control and 102.28 % of control and 98.65 % of control and 91.35 % of control and 85.38 % of control and 100.91 % of control
[5]; WI-26 VA4 EV, 300 nM
  Collagen level, average: 81.48 % of control
  Collagen level, single replicates: 91.09 % of control and 79.16 % of control and 74.69 % of control and 82.43 % of control and 80.75 % of control and 70.25 % of control and 88.16 % of control and 89.14 % of control and 75.64 % of control and 84.11 % of control and 76.95 % of control and 85.36 % of control
[5]; WI-26 VA4 EV, 1000 nM
  Collagen level, average: 68.39 % of control
  Collagen level, single replicates: 76.13 % of control and 68.91 % of control and 67.97 % of control and 76.57 % of control and 67.70 % of control and 49.07 % of control and 76.54 % of control and 74.06 % of control and 46.15 % of control and 70.23 % of control and 69.64 % of control and 77.72 % of control
[5]; WI-26 VA4 EV, 3000 nM
  Collagen level, average: 47.79 % of control
  Collagen level, single replicates: 46.50 % of control and 50.68 % of control and 52.48 % of control and 46.12 % of control and 48.12 % of control and 44.47 % of control and 46.33 % of control and 45.40 % of control and 47.63 % of control and 51.25 % of control and 49.30 % of control and 45.24 % of control
[5]; WI-26 VA4 EV, 10000 nM
  Collagen level, average: 13.92 % of control
  Collagen level, single replicates: 13.28 % of control and 17.27 % of control and 16.23 % of control and 13.89 % of control and 12.05 % of control and 10.58 % of control and 12.31 % of control and 11.80 % of control and 11.03 % of control and 17.85 % of control and 17.12 % of control and 13.65 % of control
[5]; WI-26 VA4 EV, 30000 nM
  Collagen level, average: 4.05 % of control
  Collagen level, single replicates: 4.24 % of control and 4.41 % of control and 4.74 % of control and 6.13 % of control and 2.65 % of control and 2.97 % of control and 3.41 % of control and 2.56 % of control and 2.84 % of control and 4.90 % of control and 3.97 % of control and 5.81 % of control
[5]; WI-26 VA4 EV, 100000 nM
  Collagen level, average: 3.50 % of control
  Collagen level, single replicates: 2.77 % of control and 4.80 % of control and 4.00 % of control and 3.82 % of control and 3.27 % of control and 2.48 % of control and 2.45 % of control and 2.57 % of control and 2.65 % of control and 4.71 % of control and 3.89 % of control and 4.63 % of control
[5]; WI-26 VA4 EV, 300000 nM
  Collagen level, average: 2.44 % of control
  Collagen level, single replicates: 2.49 % of control and 2.31 % of control and 2.89 % of control and 2.54 % of control
[5]; WI-26 VA4 EV, four-parameter fit
  HillSlope, collagen level: -0.8641
[5]; WI-26 VA4 EV, log of concentration in nM, four-parameter fit
  LogIC50, collagen level: 3.281
[6]
  CC50 at 72 h: 11.8 µM
  IC50 at 72 h: 11.8 µM
[6]; [8]
  activity at 72 h, 3 µM: 85.2%
  activity at 72 h, 30 µM: 25.3%
  activity at 72 h, 100 µM: 22.8%
[6]; Cytotoxicity, % of control, average, WI-26 VA4 Flag-PARS1 FA/EA/RL, 10 nM
  activity at 72 h, 0.01 µM: 110%
[6]; Cytotoxicity, % of control, average, WI-26 VA4 Flag-PARS1 FA/EA/RL, 30 nM
  activity at 72 h, 0.03 µM: 107%
[6]; Cytotoxicity, % of control, average, WI-26 VA4 Flag-PARS1 FA/EA/RL, 100 nM
  activity at 72 h, 0.1 µM: 110%
[6]; Cytotoxicity, % of control, average, WI-26 VA4 Flag-PARS1 FA/EA/RL, 300 nM
  activity at 72 h, 0.3 µM: 107%
[6]; Cytotoxicity, % of control, average, WI-26 VA4 Flag-PARS1 FA/EA/RL, 1000 nM
  activity at 72 h, 1 µM: 111%
[6]; [9]
  activity at 72 h, 3 µM: 81.7%
  activity at 72 h, 30 µM: 19.5%
  activity at 72 h, 100 µM: 20.1%
[6]; Cytotoxicity, % of control, average, WI-26 VA4 Flag-PARS1 FA/EA/RL, 10000 nM
  activity at 72 h, 10 µM: 68.8%
[6]; Cytotoxicity, % of control, average, WI-26 VA4 Flag-PARS1 FA/EA/RL, 300000 nM
  activity at 72 h, 300 µM: 1.1%
[6]; Cytotoxicity, % of control, average, WI-26 VA4 Flag-PARS1 FA/EA/RL, 1000000 nM
  activity at 72 h, 1000 µM: 0%
[7]; 10 nM, 0.01 µM
  Cytotoxicity, % of control (single replicates, Experiment #1-#4): 127.65 % of control and 116.09 % of control and 111.66 % of control and 110.83 % of control and 101.75 % of control and 99.44 % of control and 110.49 % of control and 101.49 % of control
[7]; 30 nM, 0.03 µM
  Cytotoxicity, % of control (single replicates, Experiment #1-#4): 126.96 % of control and 104.11 % of control and 114.08 % of control and 105.16 % of control and 106.38 % of control and 115.03 % of control and 93.72 % of control and 92.87 % of control
[7]; 100 nM, 0.1 µM
  Cytotoxicity, % of control (single replicates, Experiment #1-#4): 127.60 % of control and 108.47 % of control and 113.70 % of control and 109.71 % of control and 111.06 % of control and 113.53 % of control and 98.60 % of control and 94.80 % of control
[7]; 300 nM, 0.3 µM
  Cytotoxicity, % of control (single replicates, Experiment #1-#4): 132.76 % of control and 113.23 % of control and 105.15 % of control and 116.43 % of control and 104.37 % of control and 100.43 % of control and 94.90 % of control and 90.64 % of control
[7]; 1000 nM, 1 µM
  Cytotoxicity, % of control (single replicates, Experiment #1-#4): 112.40 % of control and 100.20 % of control and 107.27 % of control and 121.00 % of control and 132.94 % of control and 130.17 % of control and 95.86 % of control and 86.64 % of control
[7]; 3000 nM, 3 µM
  Cytotoxicity, % of control (single replicates, Experiment #1-#4): 71.51 % of control and 74.54 % of control and 81.32 % of control and 80.03 % of control and 89.57 % of control and 88.20 % of control and 83.52 % of control
[7]; 10000 nM, 10 µM
  Cytotoxicity, % of control (single replicates, Experiment #1-#4): 63.68 % of control and 53.80 % of control and 76.80 % of control and 69.72 % of control and 64.84 % of control and 73.82 % of control and 81.37 % of control and 66.19 % of control
[7]; 30000 nM, 30 µM
  Cytotoxicity, % of control (single replicates, Experiment #1-#4): 25.76 % of control and 18.61 % of control and 17.42 % of control and 17.01 % of control and 19.68 % of control and 18.20 % of control and 14.25 % of control
[7]; 100000 nM, 100 µM
  Cytotoxicity, % of control (single replicates, Experiment #1-#4): 21.16 % of control and 22.59 % of control and 20.38 % of control and 17.48 % of control and 18.26 % of control and 18.73 % of control and 19.25 % of control
[7]; 300000 nM, 300 µM
  Cytotoxicity, % of control (single replicates, Experiment #1-#4): 1.23 % of control and 1.09 % of control and 1.22 % of control and 0.52 % of control and 1.28 % of control and 1.77 % of control and 1.38 % of control and 0.29 % of control
[7]; 1000000 nM, 1000 µM
  Cytotoxicity, % of control (single replicates, Experiment #1-#4): 0.10 % of control and -0.10 % of control and 0.29 % of control and -0.29 % of control and 0.16 % of control and -0.16 % of control and 0.22 % of control and -0.22 % of control
[7]; log(inhibitor) vs. response, variable slope (four parameters)
  Cytotoxicity HillSlope (best-fit value): -1.118
[7]; log(inhibitor) vs. response, variable slope (four parameters), concentration in nM
  Cytotoxicity LogIC50 (best-fit value): 4.071
